Results as given in patent publication EP4644377A1, “LIPID COMPOUND FOR GENE DELIVERY AND LIPID NANOPARTICLE COMPRISING SAME” (NANJING CYBERNAX BIOMEDICAL TECHNOLOGY CO., LTD., priority 2022, dated 2024).

Legend:
[1] = Particle size detection of LNP (Brookhaven NanoBrook Omni, DLS); format: physicochemical; conditions: LNPs after coating mRNA (luciferase)
Method: Step 1. Preparation of a lipid solution and a nucleic acid solution: unless otherwise specified, all aqueous solutions involved in examples were prepared from deionized water without nucleases. An ionizable lipid, a phospholipid (disaturated phosphatidylcholine (DSPC) or dioleoylphosphatidylethanolamine (DOPE)), cholesterol and a PEG lipid (DMG-PEG2000) were mixed in a molar ratio of 50/10/38.5/1.5 (containing DSPC, formulation 1) or 36.5/16/46.5/2.5 (containing DOPE, formulation 2) and dissolved into an ethanol solution. Meanwhile, a nucleic acid (a mass ratio of ionizable lipid/nucleic acid was 10/1) was dissolved into a citrate buffer solution of pH=3, so that a final volume ratio of the ethanol solution to the citrate solution was 1/3.
Step 2. Preparation of LNP by mixing the lipid solution with the nucleic acid solution: the lipid ethanol solution and the nucleic acid aqueous solution that were prepared in Step 1 were respectively put into a sterile syringe and placed in a Precision Nanosystem Ignite instrument, the extrusion flow speeds of the ethanol solution and the water phase solution were respectively set as 3 ml/min and 9 ml/min in instrument program settings. A microfluidic chip was inserted into the instrument and LNP preparation was initiated, and then a solution mixed by the chip was collected.
Step 2.1. Preparation of an LNP solution coating nucleic acid in a porous plate: a solution of an ionizable lipid, a phospholipid (DSPC or DOPE), cholesterol and a PEG lipid (DMG-PEG2000) in ethanol was added into each well of a 96-well deep plate, so that a molar ratio of four component lipids in each well was 50/10/38.5/1.5 (containing DSPC, formulation 1) or 36.5/16/46.5/2.5 (containing DOPE, formulation 2). Then, a citrate buffer solution (pH=3, the mass of nucleic acid added into each well was 1/10 that of the ionizable lipid in this well) that was three times as ethanol in volume and dissolved with a nucleic acid molecule was quickly added into the well plate through a multi-channel pipette or an automatic liquid dispensing system and rapidly mixed, so as to obtain the LNP solution coating nucleic acid.
Step 3. Purification of the LNP solution: the LNP solution collected in Step 2 or Step 2.1 was subjected to dialysis-concentration-filtration operations, so as to obtain a final LNP solution coating nucleic acid for subsequent testing.
The LNP solution coating nucleic acid obtained in Step 3 was diluted so that the final lipid concentration was between 0.01 mg/ml and 0.1 mg/ml. The diluted solution was added into a sample reservoir, and then subjected to particle size detection in a Brookhaven NanoBrook Omni instrument.

C57Bl/6 mice = test: Luciferase mRNA delivery in mice, IVIS chemiluminescence; format: in vivo
Method: The animal experiments were reviewed and approved by the Ethics Committee of Zhejiang Medical College and the Ethics Committee of Zhejiang University of Technology. 6- to 8-week-old male C57Bl/6 mice were randomly grouped with 3 mice in each group. The mice in each group received a lipid nanoparticle coating mRNA expressing a luciferase via tail vein injection at a dose of 0.25 mg/kg mouse body weight (calculated by the mass of coated mRNA). […] The mRNA delivery effect of the lipid nanoparticle is quantitatively compared through a total chemiluminiscence quantity (Total Flux p/s) of a mouse whole body within unit time (shown in Table 5).
Table 13 and Table 14 show whole body chemiluminescent signals when LNPs (formulation 2) composed of the lipids in some examples deliver Flue mRNA in mice. The delivery dose of Flue mRNA was 0.25 mg/kg. 6 h after LNP injection, 150 mg/kg of D-luciferin was intraperitoneally injected into the mice, and then the whole body chemiluminescent signals were collected in the IVIS imaging system after 10 min. […]

[2] = LNP formulation 2 (SM102: formulation 1), luciferase mRNA 0.25 mg/kg, tail vein, C57Bl/6 mice, whole body signal 6 h after LNP, 10 min after D-luciferin 150 mg/kg i.p.
[3] = LNPs (formulation 2), Flue mRNA 0.25 mg/kg, tail vein injection, whole body signal 6 h after LNP injection, 10 min after 150 mg/kg D-luciferin i.p.

Structure (SMILES) | PDI [1] | Particle size [1] | Chemiluminescent signal (p/s) (C57Bl/6 mice; [2]) | also measured
CCCCCCCC/C=C\CCCCCCCCNC(=O)C(N(CCCN(C)C)C(=O)CCCCCCC/C=C\C[C@H](O)CCCCCC)C(C)(C)C (some centres unmarked) [Lipid 16] | 0.26 | 128.73 ± 1.97 nm·days | 6.94E+09 p/s | 
CCCCCCCC/C=C\CCCCCCCCNC(=O)C(N(CCCN(CC)CC)C(=O)CCCCCCCCCCC)C(C)(C)C (centres unmarked) [Lipid 30] |  |  | 1.35E+08 p/s | 
CCCCCCCC/C=C\CCCCCCCCNC(=O)C(C1CCCCC1)N(CCN1CCN(C)CC1)C(=O)CCCCCCCCCCC (centres unmarked) [Lipid 60] |  |  | 4.10E+07 p/s | 
CCCCC/C=C\C/C=C\CCCCCCCC(=O)N(CCCN(C)C)C(C(=O)NCCCC(=O)OCCCCCCCC/C=C\CCCCCCCC)C(CC)CC (centres unmarked) [Lipid 108] |  |  | 4.23E+09 p/s | 
CCCCCCCC/C=C\CCCCCCCC(=O)OCCCNC(=O)C(C(CC)CC)N(CCCN(CC)CC)C(=O)CCCCCCCCCCC (centres unmarked) [Lipid 113] |  |  | 3.39E+08 p/s | 
CCCCCCCCCCCCCCNC(=O)C(N(CCCN(CC)CC)C(=O)CCCCCCCCCCC)C(C)(C)C (centres unmarked) [Lipid 158] |  |  | 3.83E+08 p/s | 
CCCCCCCCCCCCCCNC(=O)C(N(CCCN(CC)CC)C(=O)CCCCCCCCCCCCC)C(C)(C)C (centres unmarked) [Lipid 159] | 0.22 | 136.93 ± 2.95 nm·days | 2.30E+09 p/s | 
CCCCC/C=C\C/C=C\CCCCCCCC(=O)N(CCCN(CC)CC)C(C(=O)NCCCCCCCCCCCCCC)C(C)(C)C (centres unmarked) [Lipid 160] | 0.23 | 201.12 ± 47.7 nm·days | 1.07E+10 p/s | 
CCCCCCCCCCCCCCNC(=O)C(N(CCCN(CC)CC)C(=O)CCCCCCC/C=C\C[C@H](O)CCCCCC)C(C)(C)C (some centres unmarked) [Lipid 161] | 0.27 | 253.06 ± 4.58 nm·days |  | 
CC/C=C\C/C=C\C/C=C\C/C=C\C/C=C\CCCC(=O)N(CCCN(CC)CC)C(C(=O)NCCCCCCCCCCCCCC)C(C)(C)C (centres unmarked) [Lipid 162] | 0.27 | 261.64 ± 5.92 nm·days | 6.66E+09 p/s | 
CCCCCCCCCCCC(=O)N(CCCN(C)C)C(C(=O)NCCCOC(=O)CCCCCCCC)C(C)(C)C (centres unmarked) [Lipid 163] | 0.17 | 200.94 ± 5.63 nm·days | 1.73E+09 p/s | 
CCCCCCCCC(=O)OCCCNC(=O)C(N(CCCN(C)C)C(=O)CCCCCCC/C=C\C[C@H](O)CCCCCC)C(C)(C)C (some centres unmarked) [Lipid 166] |  |  | 2.98E+09 p/s | 
CCCCC/C=C\C/C=C\CCCCCCCC(=O)N(CCCN(CC)CC)C(C(=O)NCCCOC(=O)CCCCCCCC)C(C)(C)C (centres unmarked) [Lipid 170] |  |  | 5.52E+08 p/s | 
CCCCCCCCCCCC(=O)N(CCCN(C)C)C(C(=O)NCCCCCCCC(=O)OC(CCCCCCCC)CCCCCCCC)C(C)(C)C (centres unmarked) [Lipid 173] |  |  | 5.48E+08 p/s | 
CCCCC/C=C\C/C=C\CCCCCCCC(=O)N(CCCN(C)C)C(C(=O)NCCCCCCCC(=O)OC(CCCCCCCC)CCCCCCCC)C(C)(C)C (centres unmarked) [Lipid 175] | 0.18 | 178.88 ± 3.61 nm·days | 7.07E+09 p/s | delivery efficiency in mRNA mouse in vivo delivery (C57Bl/6 mice; result in words): high delivery efficiency
CCCCCCCCC(CCCCCCCC)OC(=O)CCCCCCCNC(=O)C(N(CCCN(C)C)C(=O)CCCCCCC/C=C\C[C@H](O)CCCCCC)C(C)(C)C (some centres unmarked) [Lipid 176] |  |  | 9.19E+08 p/s | 
CCCCCCCCCCCC(=O)N(CCCN(CC)CC)C(C(=O)NCCCCCCCC(=O)OC(CCCCCCCC)CCCCCCCC)C(C)(C)C (centres unmarked) [Lipid 178] |  |  | 9.50E+08 p/s | 
CCCCCCCCCCCCCC(=O)N(CCCN(CC)CC)C(C(=O)NCCCCCCCC(=O)OC(CCCCCCCC)CCCCCCCC)C(C)(C)C (centres unmarked) [Lipid 179] |  |  | 2.60E+09 p/s | 
CCCCCCCCC(CCCCCCCC)OC(=O)CCCCCCCNC(=O)C(N(CCCN(CC)CC)C(=O)CCCCCCC/C=C\C[C@H](O)CCCCCC)C(C)(C)C (some centres unmarked) [Lipid 181] |  |  | 3.86E+09 p/s | 

Structure (SMILES) | PDI [1] | Particle size [1] | Chemiluminescent signal (p/s) (C57Bl/6 mice; [2]) | also measured
CCCCCCCCCCCCNC(=O)C(N(CCCN(C)CCO)C(=O)CCCCCCCCCCC)C(C)(C)C (centres unmarked) [Lipid 188] |  |  | 1.92E+10 p/s | 
CCCCCCCCCCCCCC(=O)N(CCCN(C)CCO)C(C(=O)NCCCCCCCCCCCC)C(C)(C)C (centres unmarked) [Lipid 189] | 0.19 | 188.99 ± 4.55 nm·days | 3.32E+08 p/s | 
CCCCCCCCCCCCCCNC(=O)C(N(CCN(C)CCO)C(=O)CCCCCCCCCCCCC)C(C)(C)C (centres unmarked) [Lipid 194] |  |  | 3.84E+09 p/s | 
CCCCC/C=C\C/C=C\CCCCCCCC(=O)N(CCN(C)CCO)C(C(=O)NCCCCCCCCCCCCCC)C(C)(C)C (centres unmarked) [Lipid 195] | 0.19 | 204.79 ± 3.09 nm·days | 1.43E+09 p/s | 
CCCCC/C=C\C/C=C\CCCCCCCC(=O)N(CCCN(C)C)C(C(=O)NCCCCCCOC(=O)C(CCCCCC)CCCCCCCC)C(C)(C)C (centres unmarked) [Lipid 285] |  |  | 2.91E+10 p/s | 
CCCCCCCCC(CCCCCC)C(=O)OCCCCCCNC(=O)C(N(CCCN(C)C)C(=O)CCCCCCC/C=C\C[C@H](O)CCCCCC)C(C)(C)C (some centres unmarked) [Lipid 286] |  |  | 4.78E+10 p/s | 
CC/C=C\C/C=C\C/C=C\C/C=C\C/C=C\CCCC(=O)N(CCCN(C)C)C(C(=O)NCCCCCCOC(=O)C(CCCCCC)CCCCCCCC)C(C)(C)C (centres unmarked) [Lipid 287] |  |  | 1.23E+10 p/s | 
CCCCCCCCC(CCCCCC)C(=O)OCCCCCCNC(=O)C(N(CCCN(CC)CC)C(=O)CCCCCCC/C=C\C[C@H](O)CCCCCC)C(C)(C)C (some centres unmarked) [Lipid 294] | 0.26 | 150.04 ± 0.93 nm·days |  | 
CC/C=C\C/C=C\C/C=C\C/C=C\C/C=C\CCCC(=O)N(CCCN(CC)CC)C(C(=O)NCCCCCCOC(=O)C(CCCCCC)CCCCCCCC)C(C)(C)C (centres unmarked) [Lipid 295] | 0.16 | 162.45 ± 2.28 nm·days |  | 
CCCCCCCCCCCCCC(=O)N(CCCN(C)C)C(C(=S)NCCCCCCCC(=O)OC(CCCCCCCC)CCCCCCCC)C(C)(C)C (centres unmarked) [Lipid 317] | 0.23 | 162.23 ± 0.89 nm·days |  | 
CCCCCCCC/C=C\CCCCCCCCNC(=O)C(N(CCCN(C)C)C(=O)NCCCCCCCCCCCC)C(C)(C)C (centres unmarked) [Lipid 326] | 0.18 | 111.42 ± 4.09 nm·days |  | 
CCCCCCCC/C=C\CCCCCCCCNC(=O)C(N(CCCN(C)C)C(=O)OCCCCCCCCCCCC)C(C)(C)C (centres unmarked) [Lipid 327] | 0.17 | 104.99 ± 1.21 nm·days |  | 
CCCCCCCCC(CCCCCC)COC(=O)CCCCCCC(=O)N(CCCN(C)C)C(C(=O)NCCCCCCOC(=O)C(CCCCCC)CCCCCCCC)C(C)(C)C (centres unmarked) [Lipid 436] | 0.18 | 92.2 ± 0.47 nm·days |  | 
CCCCC/C=C\C/C=C\CCCCCCCC(=O)N(CCCN(C)C)C(C(=O)NCCCCCCCC(=O)OC(CCCCCCCC)CCCCCCCC)C1CC1 (centres unmarked) [Lipid 936] | 0.19 | 160.5 ± 2.71 nm·days |  | 
CCCCC/C=C\C/C=C\CCCCCCCC(=O)N(CCCN(C)C)C(C(=O)NCCCCCCCC(=O)OC(CCCCCCCC)CCCCCCCC)C1CCC1 (centres unmarked) [Lipid 937] |  |  |  | Chemiluminescent signal (p/s) (C57Bl/6 mice; [3]): 1.01E+08 p/s
CCCCC/C=C\C/C=C\CCCCCCCC(=O)N(CCCN(C)C)C(CC)C(=O)NCCCCCCCC(=O)OC(CCCCCCCC)CCCCCCCC (centres unmarked) [Lipid 950] |  |  |  | Chemiluminescent signal (p/s) (C57Bl/6 mice; [3]): 3.41E+07 p/s
CCCCCCCCCCCCCC(=O)N(CCCN(C)C)C(C)C(=O)NCCCCCCOC(=O)C(CCCCCC)CCCCCCCC (centres unmarked) [Lipid 1039] |  |  |  | Chemiluminescent signal (p/s) (C57Bl/6 mice; [3]): 3.31E+06 p/s
CCCCCCCCCCCCCC(=O)N(CCCN(C)C)C(CC)C(=O)NCCCCCCOC(=O)C(CCCCCC)CCCCCCCC (centres unmarked) [Lipid 1041] |  |  |  | Chemiluminescent signal (p/s) (C57Bl/6 mice; [3]): 3.31E+06 p/s
